# Measured values: patent US9573972B2, “Nurotoxic sterol glycosides” (priority 2008, dated 2017)
# “Also recorded” adds a separate entry of the source.
# Legend:
# [1] = test system: lumbar spinal cord α- and γ-motor neurons; assay: Motor neuron counts (cresyl violet, Nissl), lumbar spinal cord; type: in vivo, mouse
# Protocol: Mice were sacrificed for histological analysis at 35 weeks (35.9-48.6 g) and 52 weeks (41.2-51.4 g) of age. Age-matched control mice from each time point were included for comparison. The mice were deeply anaesthetized in a chamber with 4% isoflurane and perfused intracardially with filtered PBS (pH 7.4) until the effluent was cleared of blood (2 minutes), followed by perfusion with cold (4° C.) 4% paraformaldehyde (PFA) in 0.1 M phosphate buffer (pH 7.4) for 5 minutes (30 mL). The PBS and the PFA were delivered through separate sterile platinum-cured silicon tubing (Cole-Parmer Canada Inc., Montreal, Canada) and peristaltic pumps (MasterFlex peristaltic pump, Cole-Parmer Canada Inc., Montreal, Canada). The brains and spinal cords were dissected out and fixed overnight at 4° C. and equilibrated in increasing concentrations of sucrose in phosphate-buffered saline, pH 7.4 (10, 20, and 25%) over a 3-day period. Complete equilibration of the tissues was taken as the moment the tissues sank to the bottom of the scintillation tubes filled with 25% sucrose. After equilibration, the spinal cord and brain specimens were set in molds (Tissue-tek Cryomold, Sakura Finetek, USA, Torrance, Calif.) with an optimum cutting temperature (OCT) gel-sucrose mixture frozen by immersion in an isopentane (BDH Laboratory Supplies, UK) bath on dry ice and stored at −80° C. until processing.
# Cryosectioning of tissue: Frozen, coronal sections (spinal cord: 20 μm, brain: 30 μm) were cut with a Hacker-Bright cryostat (Hacker Instruments and Industries Inc., Winnsboro, S.C.) and mounted on charged glass slides (Superfrost Plus; Fisher Scientific, Pittsburgh, Pa.) so that adjacent CNS sections on each slide represented regions 100 μm and 150 μm apart for spinal cord and brain, respectively (Tabata et al., 2008). The slides were stored at −80° C. until histological processing. To ensure CNS sections were matched between animals, anatomical landmarks were verified using a mouse brain atlas (Paxinos and Franklin, The mouse brain in stereotaxic coordinates: Second Edition, K.B.J., Academic Press, New York, 2001).
# Histology and quantification of motor neurons: Spinal cord and brain sections from each animal were stained for Nissl body substance. At room temperature (RT), sections were rinsed in a graded ethanol series (95%:15 min; 70%:1 min; 50%:1 min) to rehydrate and remove lipids and fixation chemicals from the tissue. The tissue were then rinsed for 2 min in two exchanges of distilled water, stained with twice-filtered cresyl violet stain (1.25 g cresyl violet acetate, 0.75 mL glacial acetic acid to 250 mL distilled water), rinsed in distilled water (1 minute), and then dehydrated (50% ethanol: 1 minute; 1% glacial acetic acid-70% ethanol: 2 minutes; 95% ethanol: 2 minutes; 95% ethanol: 3 dips; 100% ethanol: 1 minute) and cleared in xylene. The slides were then cover-slipped in Entellen mountant (Merck, Darmstadt, Germany). The tissue mounted slides were selected with a randomized start and sampled starting from the lumbar 2 region to the 6th. […] The boundaries for the ventral horn was determined by the margins of the gray matter for the lateral, medial and ventral boundaries as well as with the aid of an artificial line drawn laterally through the central canal. Both the left and right ventral horns from 12 sections from each animal were counted. Alpha-motor neurons and γ-motor neurons with and without apoptotic structural changes were counted using strict morphological and size criteria. Non-apoptotic α-neurons were considered as the following: Large, multipolar cells with a round, pale nucleus; visible nucleolus; globular Nissl body staining of the cytoplasm; and a diameter of 30-45 μm. In doing so, astrocytes, oligodendrocytes and microglia were excluded from the “α-motor neuron” counts (Martin, L. J. (1999) J Neuropathol Exp Neurol. 58, 459-71; Sepkuty, J. P., et al. (2002) J Neurosci. 22, 6372-9; Tabata et al., 2008). […]
# [2] = test system: male CD-1 mice; assay: Rotarod test, SG-fed mice; type: in vivo, mouse; settings: SG-fed vs control, duration of study
# From the text: Five-month old male CD-1 mice (30.1-35.7 g, 7.5 cm-8.8 cm) were purchased from Charles River (Wilmington, Mass.). Adult mice were chosen to mimic the mean age of onset of ALS-PDC (Kurland, L. T. (1988a) Trends Neurosci. 11, 51-4; Kurland, L. T., et al. (1994) Amyotrophic lateral sclerosis-parkinsonism-dementia complex on Guam: epidemiologic and etiological perspectives. 109-131). Thirty mice for the SG study were randomly divided into 2 groups (14 control and 16 experimental animals). All animals were housed singly in a virus-free barrier facility in a room maintained at 22° C. under a 12 hour light/dark cycle. The mice were provided ad libitum access to food and water.
# The synthetic SG was mixed with finely ground Purina Chow mouse pellets (Mouse Diet™, Purina) to create the experimental pellets with a SG content of 1000 μg per pellet. Dry materials were blended with a sterile silicon spatula. For every 5 g of standard feed, 2.5 mL of doubly-distilled water (dd)H2O was added and the dough was kneaded and round up into pellets. A single sterol glucoside containing pellet was placed in the feeding tray each morning before the addition of regular mouse chow (ad libitum). All experimental pellets were entirely consumed by the mice each day. […] SG feeding was conducted daily for 15 weeks and mice were behaviorally monitored until sacrifice at 35 weeks (time point 1) or 52 weeks (time point 2). […]
# [3] = SG-fed vs control, Time-point 1 (35 wk)
# [4] = SG-fed vs control, Time-point 2 (52 wk)
# [5] = SG-group over time (35 to 52 wk)
smiles,measurement,setting,value
"CC[C@H](/C=C/[C@@H](C)[C@H]1CC[C@H]2[C@@H]3CC=C4C[C@@H](O[C@@H]5O[C@H](CO)[C@@H](O)[C@H](O)[C@H]5O)CC[C@]4(C)[C@H]3CC[C@]12C)C(C)C [SG, Stigmasterol β-D-Glucopyranoside]",Chromatolytic α-MN,[1]; [3],Chromatolytic α-MN (ns)
same,Healthy α-MN per lumbar cord section,[1]; [3],Healthy α-MN (ns)
same,Pyknotic α-MN,[1]; [3],Pyknotic α-MN (ns)
same,Total γ-MN,[1]; [3],Total γ-MN (ns)
same,Chromatolytic α-MN,[1]; [4],Chromatolytic α-MN (ns)
same,Pyknotic α-MN,[1]; [4],Pyknotic α-MN (ns)
same,Total γ-MN,[1]; [4],Total γ-MN (ns)
same,Chromatolytic α-MN over time,[1]; [5],(control group & SG-group independently over time) (ns)
same,Pyknotic α-MN over time,[1]; [5],(control group and SG-group independently over time) (ns)
same,Total γ-MN over time,[1]; [5],(control group and SG-group independently over time) (ns)
same,Rotarod performance (time without fall),[2],decrease in the time without fall; also recorded: trend of diminished performance
